Measurements: patent US10800790B2, “Sesquiterpenoid STAT3 inhibitors” (University of Hawaii, priority 2013, dated 2020)

Legend:
[1] = test system: normal NIH3T3 mouse fibroblasts; experiment: CyQuant cell viability/proliferation assay, NIH3T3; type: cell-based; design: key to Activity against 3T3: +, active; −, no activity; +/−, poorly active; conditions: for NIH-3T3 % inhibition / inhibition at 5 µM: at 5 μM, 72 h; for inhibition at 5 µM: Mus musculus, NIH3T3, read-out: NIH-3T3 % inhibition
Procedure: (§1) The cell viability assay was performed as previously reported (Zhang X, et al. (2010)). Briefly, a 10 millimolar concentration stock solution in dimethylsulfoxide (DMSO) of the tested molecule was first prepared. Next, the stock solution was diluted down to various working solutions in water. Thus, a formulation of the tested compound in a DMSO/water mixture was used to test for cell viability. (A novel small-molecule disrupts STAT3 SH2 domainphosphotyrosine interactions and STAT3-dependent tumor processes, Biochem Pharmacol 79:1398-1409; Zhao W, Jaganathan S, & Turkson J (2010), A cell-permeable STAT3 SH2 domain mimetic inhibits STAT3 activation and induces antitumor cell effects in vitro. J Biol Chem. 285:35855-35865). Cells (U251MG, MDA-MB-231 or NIH3T3) were obtained from ATCC (Manassas, Va.) and were cultured in 96-well plates at 2,000 cells per well for 24 h and were treated with compounds (5 micromolar concentration) for 72 h. Cell viabilty was determined using CyQuant assay, according to the manufacturer's (Invitrogen, CA, USA) instructions. Relative viability of the treated cells was normalized to the DMSO-treated control cells.

[2] = test system: MDA-MB-231 breast cancer cells; experiment: CyQuant cell viability/proliferation assay, MDA-MB-231; type: cell-based, human; design: key to Activity against 231: +, active; −, no activity; +/−, poorly active; conditions: for MDA-MB-231 % inhibition / inhibition at 5 µM: at 5 μM, 72 h, Table 3 numbering (isolates 1-16); for inhibition at 5 µM: Homo sapiens, MDA-MB-231; for Inhibition of breast cancer MDA-MB-231, in words: 72-h treatment, FIG. 10
Procedure: as §1

[3] = test system: pY705STAT3 in U251MG or MDA-MB-231 cells; experiment: Immunoblotting of pY705STAT3 in treated tumor cells; conditions: 5 micromolar, U251MG or MDA-MB-231; for Effect on pY705STAT3 / STAT3 activity (immunoblot), in words: 0-24 h, Table 1/FIG. 2 numbering
Procedure: Positions of STATs:DNA complexes or proteins in gel are labeled; control lanes (0) represent nuclear extracts or whole-cell lysates prepared from 0.05% DMSO-treated cells. Data are representative of at least three to four independent determinations.
Lysates of equal total protein prepared in the lysis buffer (50 mM Hepes, pH 7.5, 150 mM NaCl, 2 mM EDTA, 1% Triton X-100, 0.1% SDS), were subjected to IP or Western blotting analysis. Antibodies against STAT3, pY705STAT3, Src, pY416Src, Erk1/2, and pT202/Y204Erk1/2 and GAPDH (Cell Signaling Technology, Danvers, Mass.), and anti-β-actin, and HSP105 (Santa Cruz Biotechnology, Dallas, Tex.) are from the designated sources.
Whole-cell lysates were prepared in boiling SDS sample loading buffer to extract total proteins, as reported previously. […] Nitrocellulose membranes were probed with primary antibodies, and the detection of horseradish peroxidase-conjugated secondary antibodies by enhanced chemiluminescence (Amersham) was performed. Antibodies used were monoclonal anti-pYSTAT3 and anti-STAT3 antibodies (Cell Signaling Technology, Danvers, Mass.).

[4] = test system: U251MG glioblastoma cells; experiment: CyQuant cell viability/proliferation assay, U251MG; type: cell-based, human; design: key to Activity against U251: +, active; −, no activity; +/−, poorly active; conditions: for Inhibitory effect on viability of U251MG (tumor) cells, in words: 5 micromolar; for Inhibitory effect on viability of U251MG (tumor) cells, in words / U251MG % inhibition / inhibition at 5 µM: Table 3 numbering (isolates 1-16); for U251MG % inhibition / inhibition at 5 µM: at 5 μM, 72 h; for inhibition at 5 µM: Homo sapiens, U-251; for Activity against U251: Table 1 grade, Table 1/FIG. 2 compound numbering; for Activity against the cell lines, in words: tested at 5 micromolar; for Cell-type selectivity of growth inhibition, in words: U251MG versus other cells incl. NIH3T3; for Inhibitory potency compared with 22 (CyQuant): FIG. 10, synthetic derivatives of 22
Procedure: as §1

[5] = molecular target: T1, STAT3 (NIH3T3/v-Src nuclear extracts) (Mus musculus, UniProt P42227); experiment: In vitro STAT3 DNA-binding activity/EMSA, nuclear extracts incubated with compound; type: biochemical; conditions: 5 micromolar, 30 min at room temperature
T1 construct: nuclear extracts prepared from v-Src-transformed mouse fibroblasts (NIH3T3/v-Src) containing active STAT3; endogenous in cells; host or cells: NIH3T3/v-Src mouse fibroblasts (nuclear extract)
T1 sequence (P42227 whole entry): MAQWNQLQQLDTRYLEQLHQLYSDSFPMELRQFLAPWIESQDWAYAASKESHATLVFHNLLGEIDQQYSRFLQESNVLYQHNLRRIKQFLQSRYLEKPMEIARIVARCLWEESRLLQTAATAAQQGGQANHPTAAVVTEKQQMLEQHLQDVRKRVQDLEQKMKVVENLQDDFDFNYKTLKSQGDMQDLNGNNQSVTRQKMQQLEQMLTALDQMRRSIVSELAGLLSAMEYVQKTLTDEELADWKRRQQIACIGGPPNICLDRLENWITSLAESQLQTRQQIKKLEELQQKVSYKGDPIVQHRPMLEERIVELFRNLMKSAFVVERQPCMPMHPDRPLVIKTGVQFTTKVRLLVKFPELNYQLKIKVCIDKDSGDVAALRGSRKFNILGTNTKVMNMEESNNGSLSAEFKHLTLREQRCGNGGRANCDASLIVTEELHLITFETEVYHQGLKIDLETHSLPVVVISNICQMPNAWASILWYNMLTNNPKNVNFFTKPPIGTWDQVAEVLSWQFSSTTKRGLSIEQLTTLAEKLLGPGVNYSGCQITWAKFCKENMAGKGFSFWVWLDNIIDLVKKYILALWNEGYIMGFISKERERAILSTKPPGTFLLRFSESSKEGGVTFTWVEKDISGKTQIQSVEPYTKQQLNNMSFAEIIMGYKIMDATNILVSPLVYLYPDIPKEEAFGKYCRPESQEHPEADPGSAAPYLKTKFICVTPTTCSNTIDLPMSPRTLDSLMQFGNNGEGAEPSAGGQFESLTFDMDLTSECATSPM
Procedure: To further determine the effects of the bioactive agents on STAT3 activity, nuclear extracts prepared from v-Src-transformed mouse fibroblasts (NIH3T3/v-Src) containing active STAT3 were directly incubated with 5 micromolar compounds for 30 min at room temperature prior to performing STAT3 DNA-binding activity in vitro with EMSA analysis. […] These studies indicate that agents directly interact with STAT3 and disrupt STAT3:STAT3 dimers, thereby inhibiting its DNA-binding activity.
Data are representative of 2-3 independent determinations.
Nuclear extract preparations and DNA-binding/electrophoretic mobility shift assay (EMSA) were carried out as previously described (Xu, supra). Nuclear extract preparations and DNA-binding activity/electrophoretic mobility shift assay (EMSA) were carried out as previously described. U251 MG and MDA-MB-231 cells culture were pretreated with different concentrations of the compounds for the indicated period and then harvested for nuclear extract preparation and DNA-binding assay with EMSA analysis. The ^32P-labeled oligonucleotide probe used was hSIE (high-affinity sis-inducible element) from the c-fos gene, m67 variant (5′-[…]-3′) that binds STAT3. Except where indicated, nuclear extracts were pre-incubated with compound for 30 min at room temperature prior to incubation with the radiolabeled probe for 30 min at 30° C. before subjecting to EMSA analysis. Where appropriate, bands corresponding to DNA-binding activities were scanned and quantified for each concentration of compound using ImageJ and plotted as percent of control (vehicle) against concentration of compound, from which the IC50 values were derived.

Stat3 = Stat3 (Homo sapiens, UniProt P40763); experiment: Activity against Stat3 (Table 1 grade); type: biochemical; design: key: +, active; −, no activity; +/−, poorly active; conditions: Table 1/FIG. 2 compound numbering
Stat3, sequence (P40763 whole entry, species assumed): as the sequence (P42227 whole entry) above, with D760E counted along it

[6] = test system: STAT3 DNA-binding activity; experiment: STAT3 DNA-binding activity (EMSA) of nuclear extracts from treated tumor cells; conditions: 5 micromolar, time course
Procedure: Positions of STATs:DNA complexes or proteins in gel are labeled; control lanes (0) represent nuclear extracts or whole-cell lysates prepared from 0.05% DMSO-treated cells.
Nuclear extract preparations and DNA-binding/electrophoretic mobility shift assay (EMSA) were carried out as previously described (Xu, supra). Nuclear extract preparations and DNA-binding activity/electrophoretic mobility shift assay (EMSA) were carried out as previously described. U251 MG and MDA-MB-231 cells culture were pretreated with different concentrations of the compounds for the indicated period and then harvested for nuclear extract preparation and DNA-binding assay with EMSA analysis. […] Except where indicated, nuclear extracts were pre-incubated with compound for 30 min at room temperature prior to incubation with the radiolabeled probe for 30 min at 30° C. before subjecting to EMSA analysis.

[7] = test system: STAT3 tyrosine phosphorylation; conditions: Butturini et al. 2011; cited from earlier work
[8] = test system: intracellular glutathione; conditions: literature reports; cited from earlier work
[9] = Table 3 numbering (isolates 1-16)
[10] = Table 1 grade, Table 1/FIG. 2 compound numbering

## 8α-(2′Z-tigloyloxy)hirsutinolide-13-O-acetate [Compound 2]
[1]; [9]
  NIH-3T3 % inhibition: 8.0%
[2]
  MDA-MB-231 % inhibition: ne (ne, no effect inhibition)
[3]; [9]
  Inhibition of pY705STAT3 (immunoblot), in words: inhibited STAT3 phosphorylation
[4]
  Inhibitory effect on viability of U251MG (tumor) cells, in words: weak inhibitory effect
  U251MG % inhibition: 48.6%

## 8α-(4-hydroxytigloyloxy)-hirsutinolide [Compound 3]
[1]; [9]
  NIH-3T3 % inhibition: ne (ne, no effect inhibition)
[2]
  MDA-MB-231 % inhibition: ne (ne, no effect inhibition)
[4]
  U251MG % inhibition: ne (ne, no effect inhibition)

## CC=C(C)C(=O)OC1CC(C)C2(O)CCC(C)(C=C3OC(=O)C(CO)=C31)O2 (stereo not drawn) [Compound 1, 8α-(2′Z-tigloyloxy)hirsutinolide]
[1]; [9]
  NIH-3T3 % inhibition: ne (ne, no effect inhibition)
[2]
  MDA-MB-231 % inhibition: ne (ne, no effect inhibition)
[4]
  U251MG % inhibition: ne (ne, no effect inhibition)

## CC=C(C)C(=O)OCC1=C2C(=CC3(C)CCC(O)(O3)C(C)CC2O)OC1=O (stereo not drawn) [Compound 4, 8α-hydroxy-13-O-tigloyl-hirsutinolide]
[1]; 5 micromolar, Table 3 numbering (isolates 1-16)
  Inhibitory effect on NIH3T3 fibroblasts, in words: lower inhibitory effect
[1]; [9]
  NIH-3T3 % inhibition: 32.1%
[2]
  MDA-MB-231 % inhibition: 26.2%
[4]
  Inhibitory effect on viability of U251MG (tumor) cells, in words: high inhibitory effect
  U251MG % inhibition: 80.9%

## C=C(C)C(=O)OC1CC(C)C2(O)CCC(C)(C=C3OC(=O)C(CO)=C31)O2 (stereo not drawn) [Compound 5, 8α-(2-methylacryloyloxy)-hirsutinolide]
[1]; [9]
  NIH-3T3 % inhibition: ne (ne, no effect inhibition)
[2]
  MDA-MB-231 % inhibition: ne (ne, no effect inhibition)
[4]
  U251MG % inhibition: ne (ne, no effect inhibition)

## CC1(C)C[C@H](O)C[C@@]2(C)OC(=O)C=C12 [Compound 12, loliolide]
[1]; [9]
  inhibition at 5 µM: < 6%
[2]
  inhibition at 5 µM: < 6%
[4]
  inhibition at 5 µM: < 6%

## O=c1cc(-c2ccc(O)cc2)oc2cc(O)cc(O)c12 [Compound 15, apigenine]
[1]; [9]
  inhibition at 5 µM: < 6%
[2]
  inhibition at 5 µM: < 6%
[4]
  inhibition at 5 µM: < 6%

## C=C(C)C(=O)OC1CC(C)C2(O)CCC(C)(C=C3OC(=O)C(CO)=C31)O2 (stereo not shown) [Compound 18]
[5]
  Inhibition of STAT3 DNA-binding activity in vitro (EMSA): moderate to no effect
[3]
  Effect on pY705STAT3 / STAT3 activity (immunoblot), in words: little effects on pY705STAT3
[4]
  Activity against U251: +/−
[4]; Table 1/FIG. 2 numbering
  Activity against the cell lines, in words: moderate to weak activity
Stat3
  Activity against Stat3: −

## CC=C(C)C(=O)OC1CC(C)C2(O)CCC(C)(C=C3OC(=O)C(CO)=C31)O2 (stereo not shown) [Compound 19]
[5]
  Inhibition of STAT3 DNA-binding activity in vitro (EMSA): moderate to no effect
[3]
  Effect on pY705STAT3 / STAT3 activity (immunoblot), in words: little effects on pY705STAT3
[4]
  Activity against U251: −
[4]; Table 1/FIG. 2 numbering
  Activity against the cell lines, in words: moderate to weak activity
Stat3
  Activity against Stat3: −

## CC=C(C)C(=O)OC1CC(C)C2(O)CCC(C)(C=C3OC(=O)C(COC(C)=O)=C31)O2 (stereo not shown) [Compound 20]
[6]
  Inhibition of STAT3 DNA-binding activity in treated cells (EMSA): early inhibition at 15-30 min
[1]; [10]
  Activity against 3T3: +/−
[2]; [10]
  Activity against 231: +
[5]
  Inhibition of STAT3 DNA-binding activity in vitro (EMSA): strong inhibition
[3]
  Effect on pY705STAT3 / STAT3 activity (immunoblot), in words: early inhibition at 15-30 min
[4]; 72-h treatment, Table 1/FIG. 2 numbering, read-out: IC50 for the inhibition of U251MG cell viability
  IC50: 4.3 µM
[4]; Table 1/FIG. 2 numbering
  Cell-type selectivity of growth inhibition, in words: selective against the growth of human glioma U251MG cells
Stat3
  Activity against Stat3: +

## C=C(C)C(=O)OC1CC(C)C2(OC)CCC(C)(C=C3OC(=O)C(CO)=C31)O2 (stereo not shown) [Compound 28]
[5]
  Inhibition of STAT3 DNA-binding activity in vitro (EMSA): moderate to no effect
[3]
  Effect on pY705STAT3 / STAT3 activity (immunoblot), in words: little effects on pY705STAT3
[4]
  Activity against U251: −
[4]; Table 1/FIG. 2 numbering
  Activity against the cell lines, in words: moderate to weak activity
Stat3
  Activity against Stat3: −

## C=C1CC[C@H]2C(=C)CC[C@H]3C(=C)C(=O)O[C@@H]3[C@@H]12 [dehydrocostuslactone]
[7]
  Tyrosine-phosphorylation of STAT3 in cells treated with IL-6: inhibited the tyrosine-phosphorylation of STAT3
[8]
  Intracellular glutathione content: rapid drop in intracellular glutathione content

## C/C1=C\[C@H]2OC(=O)[C@@H](C)[C@@H]2CC/C(C)=C/CC1 [dihydrocostunolide]
[7]
  Tyrosine-phosphorylation of STAT3 in cells treated with IL-6: failed to exert inhibitory action toward STAT3 tyrosine phosphorylation

## C/C=C(\C)C(=O)OCC1=C2/C(=C\C3(C)CCC(O)(O3)[C@H](C)C[C@@H]2OC(=O)/C(C)=C/C)OC1=O (stereo partly drawn) [zmm-1-36, (4S,6R,E)-7-hydroxy-6,10-dimethyl-3-((((E)-2-methylbut-2-enoyl)oxy)methyl)-2-oxo-2,4,5,6,7,8,9,10-octahydro-7,10-epoxycyclodeca[b]furan-4-yl(E)-2-methylbut-2-enoate]
[3]
  Effect on pY705STAT3 / STAT3 activity (immunoblot), in words: inhibited pY705STAT3
[4]; 72-h treatment
  Inhibitory potency compared with 22 (CyQuant): retained the inhibitory potency as 22
[4]; Table 1/FIG. 2 numbering
  Cell-type selectivity of growth inhibition, in words: lost cell-type specificity

## C/C=C(\C)C(=O)OCC1=C2/C(=C\C3(C)CCC(OC)(O3)[C@H](C)C[C@@H]2OC(=O)/C(C)=C/C)OC1=O (stereo partly drawn) [zmm-1-37, (4S,6R,E)-7-methoxy-6,10-dimethyl-3-((((E)-2-methylbut-2-enoyl)oxy)methyl)-2-oxo-2,4,5,6,7,8,9,10-octahydro-7,10-epoxycyclodeca[b]furan-4-yl(E)-2-methylbut-2-enoate]
[2]
  Inhibition of breast cancer MDA-MB-231, in words: also inhibited breast cancer, MDA-MB-231
[3]
  Effect on pY705STAT3 / STAT3 activity (immunoblot), in words: inhibited pY705STAT3
[4]; 72-h treatment
  Inhibitory potency compared with 22 (CyQuant): retained the inhibitory potency as 22

## C[C@@H]1C[C@H](O)C2=C(COC(=O)/C=C/c3ccc(F)cc3)C(=O)O/C2=C/C2(C)CCC1(O)O2 (stereo partly shown) [zmm-1-78]
[2]
  Inhibition of breast cancer MDA-MB-231, in words: also inhibited breast cancer, MDA-MB-231

## (9Z,12S,13S)-dihydroxy-9-octadecanoic acid [Compound 16]
[1]; [9]
  NIH-3T3 % inhibition: ne (ne, no effect inhibition)
[2]
  MDA-MB-231 % inhibition: ne (ne, no effect inhibition)
[4]
  U251MG % inhibition: ne (ne, no effect inhibition)
